Data on two compounds can be found in US20120184765A1, “Process for preparing alkyl phosphates” (LANXESS DEUTSCHLAND GMBH, priority 2011, published 2012).

The data set in a line: Solubility of tetraalkyl bisphosphates in water (separating funnel test). The class given is physicochemical. As to conditions: for water solubility (phase separation observed): 50.0 g tetraalkyl bisphosphate + 50.0 g fully demineralized water, shaken, left to stand 1 hour, residue of aqueous phase / weight of aqueous phase; for solubility / miscibility in water (in words): conclusion from the phase separation experiments; for phase separation in further experiments: different weight ratios of tetraalkyl bisphosphate and water.

Method: A separating funnel was charged with 50.0 g of tetraalkyl bisphosphate and 50.0 g of fully demineralized water, and was shaken vigorously and then left to stand for 1 hour. If phase separation became apparent, the lower, aqueous phase was carefully separated off and weighed (mw). The aqueous phase was concentrated to constant weight under reduced pressure on a rotary evaporator, and the residue was likewise weighed (mR).

As for `CCOP(=O)(OCC)OCCOCCOP(=O)(OCC)OCC` [Tetraethyldiethylene glycol bisphosphate, tetraethyldiethylene glycol bisphosphate], the “water solubility (phase separation observed)” value is on record as “no phase separation”, the “solubility / miscibility in water (in words)” value is listed as “fully water-soluble” and the “phase separation in further experiments” value is given as “no phase separation”.

As to “tetramethyldiethylene glycol bisphosphate”, the “water solubility (phase separation observed)” value is “no phase separation”, the “solubility / miscibility in water (in words)” value is “fully water-soluble” and the “phase separation in further experiments” value was “no phase separation”.
